Experimental data published in PubChem BioAssay AID1963865 (Molecular Pharmacology Branch, DTP, NCI, 2024).

Tested on: KRAS PDC multicell spheroid viability
Test: Anticancer human tumor 825966-067-R-J1-PDC patient-derived colon carcinoma cell line growth inhibition [KRAS2]
Settings: for IC50: curve of first compound; for viability, T/C: stronger effect = lower value
Procedure, shortened: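 Combination screen of spheroid viability in tumor-cell co-cultures with endothelial (HUVEC) and mesenchymal stem cell stroma. Each agent was tested in half-log dilutions, topping at clinical Cmax or at 10 microM without a known Cmax.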

[1] = second compound 0.0316 µM, first compound 0.0316 µM
[2] = second compound 0.0316 µM, first compound 0.1 µM
[3] = second compound 0.0316 µM, first compound 0.316 µM
[4] = second compound 0.0316 µM, first compound 1 µM
[5] = second compound 0.0316 µM, first compound 3.16 µM
[6] = second compound 0.1 µM, first compound 0.0316 µM
[7] = second compound 0.1 µM, first compound 0.1 µM
[8] = second compound 0.1 µM, first compound 0.316 µM
[9] = second compound 0.1 µM, first compound 1 µM
[10] = second compound 0.1 µM, first compound 3.16 µM
[11] = second compound 0.1 µM, first compound 10 µM
[12] = second compound 0.316 µM, first compound 0.0316 µM
[13] = second compound 0.316 µM, first compound 0.1 µM
[14] = second compound 0.316 µM, first compound 0.316 µM
[15] = second compound 0.316 µM, first compound 1 µM
[16] = second compound 0.316 µM, first compound 3.16 µM
[17] = second compound 0.316 µM, first compound 10 µM
[18] = second compound 1 µM, first compound 0.0316 µM
[19] = second compound 1 µM, first compound 0.1 µM
[20] = second compound 1 µM, first compound 0.316 µM
[21] = second compound 1 µM, first compound 1 µM
[22] = second compound 1 µM, first compound 3.16 µM
[23] = second compound 1 µM, first compound 10 µM
[24] = second compound 3.16 µM, first compound 0.0316 µM
[25] = second compound 3.16 µM, first compound 0.1 µM
[26] = second compound 3.16 µM, first compound 0.316 µM
[27] = second compound 3.16 µM, first compound 1 µM
[28] = second compound 3.16 µM, first compound 3.16 µM
[29] = second compound 3.16 µM, first compound 10 µM
[30] = second compound 0.0316 µM, first compound 0.01 µM
[31] = second compound 0.1 µM, first compound 0.01 µM
[32] = second compound 0.316 µM, first compound 0.01 µM
[33] = second compound 1 µM, first compound 0.01 µM
[34] = second compound 3.16 µM, first compound 0.01 µM
[35] = second compound 10 µM, first compound 0.0316 µM
[36] = second compound 10 µM, first compound 0.1 µM
[37] = second compound 10 µM, first compound 0.316 µM
[38] = second compound 10 µM, first compound 1 µM
[39] = second compound 10 µM, first compound 3.16 µM
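Also: spheroids exposed to compounds for 7 days.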
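For viability, T/C in this document: 100% = DMSO vehicle control viability.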

Row | Structure (SMILES) | IC50 (second compound 0.1 µM) | IC50 (second compound 0.316 µM) | IC50 (second compound 1 µM) | IC50 (second compound 3.16 µM) | viability, T/C [6] | viability, T/C [7] | viability, T/C [8] | viability, T/C [9] | viability, T/C [10] | viability, T/C [12] | viability, T/C [13] | viability, T/C [14] | viability, T/C [15] | viability, T/C [16] | viability, T/C [18] | viability, T/C [19] | viability, T/C [20] | viability, T/C [21] | viability, T/C [22] | viability, T/C [24] | further results
1 | COc1cc(Nc2ncc3c(n2)-c2ccc(Cl)cc2C(c2c(F)cccc2OC)=NC3)ccc1C(=O)O + C=CC(=O)N1CCN(c2nc(OCC3CCCN3C)nc3c2CCN(c2cccc4cccc(C)c24)C3)CC1CC#N | > 10000 nM | > 10000 nM | > 10000 nM | 4430 nM | 129% | 142% | 123% | 129% | 122% | 124% | 154% | 112% | 134% | 129% | 104% | 150% | 153% | 135% | 121% | 45% | IC50 (second compound 0.0316 µM): > 10000 nM; viability, T/C [1]: 136%; viability, T/C [2]: 129%; viability, T/C [3]: 144%; viability, T/C [4]: 137%; viability, T/C [5]: 138%; viability, T/C (second compound 0.0316 µM, first compound 10 µM): 127%; viability, T/C [11]: 140%; viability, T/C [17]: 141%; viability, T/C [23]: 114%; viability, T/C [25]: 130%; viability, T/C [26]: 73.1%; viability, T/C [27]: 104%; viability, T/C [28]: 67.1%; viability, T/C [29]: 8.84%
2 | CC1COCCN1c1cc(-c2ccnn2C)c2ccnc(-c3ccn[nH]3)c2n1 (configuration not stated) | – | – | – | – | – | – | – | – | – | – | – | – | – | – | – | – | – | – | – | – | viability, T/C (compound 0.01 µM): 110% [middle of 5 runs]; viability, T/C (compound 3.16 µM): 60% [middle of 5 runs]
3 | CC(=O)OC12COC1CC(O)C1(C)C(=O)C(O)C3=C(C)C(OC(=O)C(O)C(NC(=O)OC(C)(C)C)c4ccccc4)CC(O)(C(OC(=O)c4ccccc4)C21)C3(C)C (configuration not stated) + C=CC(=O)N1CCN(c2nc(OCC3CCCN3C)nc3c2CCN(c2cccc4cccc(C)c24)C3)CC1CC#N | < 10 nM | < 10 nM | < 10 nM | < 10 nM | 29.6% | 32.1% | 22% | 28.6% | 35.9% | 21.2% | 25.4% | 24.5% | 26.2% | 27.3% | 25% | 30% | 20% | 27% | 26.1% | 23.2% | IC50 (second compound 0.0316 µM): < 10 nM; viability, T/C [30]: 24.8%; viability, T/C [1]: 28%; viability, T/C [2]: 23.1%; viability, T/C [3]: 23.1%; viability, T/C [4]: 24.5%; viability, T/C [5]: 40.3%; viability, T/C [31]: 27%; viability, T/C [32]: 23%; viability, T/C [33]: 28.6%; viability, T/C [34]: 31.7%; viability, T/C [25]: 21.2%; viability, T/C [26]: 23.8%; viability, T/C [27]: 17.2%; viability, T/C [28]: 29.6%
4 | CC(=O)OC12COC1CC(O)C1(C)C(=O)C(O)C3=C(C)C(OC(=O)C(O)C(NC(=O)OC(C)(C)C)c4ccccc4)CC(O)(C(OC(=O)c4ccccc4)C21)C3(C)C (configuration not stated) + CNCc1ccccc1-c1csc(C(C)Nc2nc(C)nc3cc(OC)c(OC)cc23)c1 | < 10 nM | < 10 nM | < 10 nM | < 10 nM | 14.4% | 17.6% | 15.7% | 18.1% | 23.4% | 10.2% | 11.7% | 11.5% | 14.3% | 18.6% | 17.5% | 11.6% | 13% | 15.5% | 16.2% | 15.2% | IC50 (second compound 10 µM): < 10 nM; viability, T/C [31]: 21.7%; viability, T/C [32]: 17.2%; viability, T/C [33]: 12.6%; viability, T/C [34]: 0.14%; viability, T/C [25]: 1.18%; viability, T/C [26]: 0.07%; viability, T/C [27]: 0.57%; viability, T/C [28]: 24.8%; viability, T/C (second compound 10 µM, first compound 0.01 µM): 2.23%; viability, T/C [35]: 1.24%; viability, T/C [36]: 0.96%; viability, T/C [37]: 0.12%; viability, T/C [38]: 0.12%; viability, T/C [39]: 0.18%
5 | CCNC(=O)CC1N=C(c2ccc(Cl)cc2)c2cc(OC)ccc2-n2c(C)nnc21 (configuration not stated) + CC1OCC2(CCN(c3cnc(Sc4ccnc(N)c4Cl)c(N)n3)CC2)C1N | > 10000 nM | > 10000 nM | > 10000 nM | > 10000 nM | 104% | 107% | 122% | 82.7% | 89.9% | 101% | 123% | 119% | 90.3% | 91.2% | 97.5% | 139% | 138% | 108% | 107% | 97.6% | IC50 (second compound 10 µM): > 10000 nM; viability, T/C [11]: 84.9%; viability, T/C [17]: 80.1%; viability, T/C [23]: 89.6%; viability, T/C [25]: 118%; viability, T/C [26]: 137%; viability, T/C [27]: 103%; viability, T/C [28]: 84.2%; viability, T/C [29]: 71.3%; viability, T/C [35]: 85.2%; viability, T/C [36]: 91.5%; viability, T/C [37]: 93.5%; viability, T/C [38]: 87.6%; viability, T/C [39]: 67.6%; viability, T/C (second compound 10 µM, first compound 10 µM): 71.8%
6 | CC1COCCN1c1cc(-c2ccnn2C)c2ccnc(-c3ccn[nH]3)c2n1 (configuration not stated) + C=CC(=O)N1CCN(c2nc(OCC3CCCN3C)nc3c2CCN(c2cccc4cccc(C)c24)C3)CC1CC#N | > 3160 nM | 208 nM | 89.5 nM | 14.5 nM | 114% | 63.6% | 46.8% | 70.6% | 49.5% | 119% | 65% | 41.6% | 61.1% | 21.7% | 123% | 39.6% | 56.3% | 39.3% | 34.4% | 20.2% | IC50 (second compound 0.0316 µM): > 3160 nM; viability, T/C [30]: 118%; viability, T/C [1]: 102%; viability, T/C [2]: 69.1%; viability, T/C [3]: 56.7%; viability, T/C [4]: 73.8%; viability, T/C [5]: 46.4%; viability, T/C [31]: 101%; viability, T/C [32]: 94.5%; viability, T/C [33]: 120%; viability, T/C [34]: 64.1%; viability, T/C [25]: 23.1%; viability, T/C [26]: 9.83%; viability, T/C [27]: 15.4%; viability, T/C [28]: 25.3%
